{"source": "patent US20130303509A1", "about": "“NAMPT INHIBITORS” (AbbVie Inc., priority 2012, published 2013)", "note": "pIC50: −log10 of the molar value."}
{"system": "PC3 cells", "experiment": "NAMPT Cell Proliferation Assay", "assay_type": "cell-based", "details": "Homo sapiens, PC-3, 120 h, 5 days incubation, cell viability by Cell Titer Glo", "procedure,_shortened": "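Seeded at 500 cells/well in RPMI with 10% heat-inactivated FBS and left to attach overnight at 37° C, 5% CO2. Compounds were added as 10-fold dilutions […] for 5 days, then viability was read by CellTiter-Glo. IC50s came from sigmoidal fits of percent inhibition.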"}
{"smiles": "O=C(Nc1ccc(C2CCN(C(=O)CCCc3cccs3)CC2)cc1)[C@H]1CCN(c2cccnn2)C1", "note": "[Example 642, (3S)-1-(pyridazin-3-yl)-N-(4-{1-[4-(thiophen-2-yl)butanoyl]piperidin-4-yl}phenyl)pyrrolidine-3-carboxamide]", "pIC50": 8.14}
{"smiles": "O=C(Nc1ccc(C2CCN(C(=O)CC3CC3)CC2)cc1)[C@H]1CCN(c2cccnn2)C1", "note": "[Example 643, (3S)-N-{4-[1-(cyclopropylacetyl)piperidin-4-yl]phenyl}-1-(pyridazin-3-yl)pyrrolidine-3-carboxamide]", "pIC50": 8.07}
{"smiles": "O=C(Nc1ccc(C2CCN(C(=O)CC3CCCC3)CC2)cc1)[C@H]1CCN(c2cccnn2)C1", "note": "[Example 644, (3S)-N-{4-[1-(cyclopentylacetyl)piperidin-4-yl]phenyl}-1-(pyridazin-3-yl)pyrrolidine-3-carboxamide]", "pIC50": 8.08}
{"smiles": "O=C(Nc1ccc(C2CCN(C(=O)c3cc(F)ccc3F)CC2)cc1)[C@H]1CCN(c2cccnn2)C1", "note": "[Example 645, (3S)-N-{4-[1-(2,5-difluorobenzoyl)piperidin-4-yl]phenyl}-1-(pyridazin-3-yl)pyrrolidine-3-carboxamide]", "pIC50": 8.48}
{"smiles": "O=C(Nc1ccc(C2CCN(C(=O)Cc3ccc4ccccc4c3)CC2)cc1)[C@H]1CCN(c2cccnn2)C1", "note": "[Example 646, (3S)-N-{4-[1-(naphthalen-2-ylacetyl)piperidin-4-yl]phenyl}-1-(pyridazin-3-yl)pyrrolidine-3-carboxamide]", "pIC50": 7.23}
{"smiles": "O=C(Nc1ccc(C2CCN(C(=O)CCS(=O)(=O)c3ccccc3)CC2)cc1)[C@H]1CCN(c2cccnn2)C1", "note": "[Example 647, (3S)-N-(4-{1-[3-(phenylsulfonyl)propanoyl]piperidin-4-yl}phenyl)-1-(pyridazin-3-yl)pyrrolidine-3-carboxamide]", "pIC50": 8.24}
{"smiles": "O=C(Nc1ccc(C2CCN(C(=O)Cc3cccc(C(F)(F)F)c3)CC2)cc1)[C@H]1CCN(c2cccnn2)C1", "note": "[Example 648, (3S)-1-(pyridazin-3-yl)-N-[4-(1-{[3-(trifluoromethyl)phenyl]acetyl}piperidin-4-yl)phenyl]pyrrolidine-3-carboxamide]", "pIC50": 7.57}
{"smiles": "O=C(Nc1ccc(C2CCN(C(=O)c3ccco3)CC2)cc1)[C@H]1CCN(c2cccnn2)C1", "note": "[Example 649, (3S)-N-{4-[1-(furan-2-ylcarbonyl)piperidin-4-yl]phenyl}-1-(pyridazin-3-yl)pyrrolidine-3-carboxamide]", "pIC50": 8.95}
{"smiles": "O=C(NCC(=O)N1CCC(c2ccc(NC(=O)[C@H]3CCN(c4cccnn4)C3)cc2)CC1)c1ccccc1", "note": "[Example 650, (3S)-N-{4-[1-(N-benzoylglycyl)piperidin-4-yl]phenyl}-1-(pyridazin-3-yl)pyrrolidine-3-carboxamide]", "pIC50": 7.06}
{"smiles": "O=C(Nc1ccc(C2CCN(C(=O)Cc3ccc(Cl)cc3Cl)CC2)cc1)[C@H]1CCN(c2cccnn2)C1", "note": "[Example 651, (3S)-N-(4-{1-[(2,4-dichlorophenyl)acetyl]piperidin-4-yl}phenyl)-1-(pyridazin-3-yl)pyrrolidine-3-carboxamide]", "pIC50": 7.56}
{"smiles": "Cc1ccccc1C(=O)N1CCC(c2ccc(NC(=O)[C@H]3CCN(c4cccnn4)C3)cc2)CC1", "note": "[Example 652, (3S)-N-{4-[1-(2-methylbenzoyl)piperidin-4-yl]phenyl}-1-(pyridazin-3-yl)pyrrolidine-3-carboxamide]", "pIC50": 8.21}
{"smiles": "O=C(Nc1ccc(C2CCN(C(=O)CCC(F)(F)F)CC2)cc1)[C@H]1CCN(c2cccnn2)C1", "note": "[Example 653, (3S)-1-(pyridazin-3-yl)-N-{4-[1-(4,4,4-trifluorobutanoyl)piperidin-4-yl]phenyl}pyrrolidine-3-carboxamide]", "pIC50": 8.01}
{"smiles": "CC1(C(=O)N2CCC(c3ccc(NC(=O)[C@H]4CCN(c5cccnn5)C4)cc3)CC2)CCCCC1", "note": "[Example 654, (3S)-N-(4-{1-[(1-methylcyclohexyl)carbonyl]piperidin-4-yl}phenyl)-1-(pyridazin-3-yl)pyrrolidine-3-carboxamide]", "pIC50": 8.56}
{"smiles": "O=C(Nc1ccc(C2CCN(C(=O)c3ccsc3)CC2)cc1)[C@H]1CCN(c2cccnn2)C1", "note": "[Example 655, (3S)-1-(pyridazin-3-yl)-N-{4-[1-(thiophen-3-ylcarbonyl)piperidin-4-yl]phenyl}pyrrolidine-3-carboxamide]", "pIC50": 9.32}
{"smiles": "Cc1ccc(C(=O)N2CCC(c3ccc(NC(=O)[C@H]4CCN(c5cccnn5)C4)cc3)CC2)cn1", "note": "[Example 656, (3S)-N-(4-{1-[(6-methylpyridin-3-yl)carbonyl]piperidin-4-yl}phenyl)-1-(pyridazin-3-yl)pyrrolidine-3-carboxamide]", "pIC50": 7.21}
{"smiles": "O=C(Nc1ccc(C2CCN(C(=O)Cc3cccc(Cl)c3)CC2)cc1)[C@H]1CCN(c2cccnn2)C1", "note": "[Example 657, (3S)-N-(4-{1-[(3-chlorophenyl)acetyl]piperidin-4-yl}phenyl)-1-(pyridazin-3-yl)pyrrolidine-3-carboxamide]", "pIC50": 8.07}
{"smiles": "CCC(=O)N1CCC(c2ccc(NC(=O)[C@H]3CCN(c4cccnn4)C3)cc2)CC1", "note": "[Example 658, (3S)-N-[4-(1-propanoylpiperidin-4-yl)phenyl]-1-(pyridazin-3-yl)pyrrolidine-3-carboxamide]", "pIC50": 7.84}
{"smiles": "O=C(Nc1ccc(C2CCN(C(=O)c3cc(F)cc(F)c3)CC2)cc1)[C@H]1CCN(c2cccnn2)C1", "note": "[Example 659, (3S)-N-{4-[1-(3,5-difluorobenzoyl)piperidin-4-yl]phenyl}-1-(pyridazin-3-yl)pyrrolidine-3-carboxamide]", "pIC50": 7.95}
{"smiles": "O=C(Nc1ccc(C2CCN(C(=O)C3CCCC3)CC2)cc1)[C@H]1CCN(c2cccnn2)C1", "note": "[Example 660, (3S)-N-{4-[1-(cyclopentylcarbonyl)piperidin-4-yl]phenyl}-1-(pyridazin-3-yl)pyrrolidine-3-carboxamide]", "pIC50": 8.28}
{"smiles": "O=C(Nc1ccc(C2CCN(C(=O)C3CCCO3)CC2)cc1)[C@H]1CCN(c2cccnn2)C1", "note": "(stereo partly drawn) [Example 661, (3S)-1-(pyridazin-3-yl)-N-{4-[1-(tetrahydrofuran-2-ylcarbonyl)piperidin-4-yl]phenyl}pyrrolidine-3-carboxamide]", "pIC50": 7.67}
{"smiles": "O=C(Nc1ccc(C2CCN(C(=O)C3CC3)CC2)cc1)[C@H]1CCN(c2cccnn2)C1", "note": "[Example 662, (3S)-N-{4-[1-(cyclopropylcarbonyl)piperidin-4-yl]phenyl}-1-(pyridazin-3-yl)pyrrolidine-3-carboxamide]", "pIC50": 7.80}
{"smiles": "O=C(Nc1ccc(C2CCN(C(=O)c3ccc(Cl)cc3)CC2)cc1)[C@H]1CCN(c2cccnn2)C1", "note": "[Example 663, (3S)-N-{4-[1-(4-chlorobenzoyl)piperidin-4-yl]phenyl}-1-(pyridazin-3-yl)pyrrolidine-3-carboxamide]", "pIC50": 7.50}
{"smiles": "CC(C)Cn1cc(-c2cc(C(=O)N[C@H]3CCN(c4cccnn4)C3)cs2)cn1", "note": "[Example 664, 5-[1-(2-methylpropyl)-1H-pyrazol-4-yl]-N-[(3S)-1-(pyridazin-3-yl)pyrrolidin-3-yl]thiophene-3-carboxamide]", "pIC50": 5.94}
{"smiles": "Cc1cc(N2CC(C(=O)Nc3ccc(C4CCN(C(=O)c5ccccc5)CC4)cc3)C2)cnc1F", "note": "[Example 665, N-[4-(1-benzoylpiperidin-4-yl)phenyl]-1-(6-fluoro-5-methylpyridin-3-yl)azetidine-3-carboxamide]", "pIC50": 5.12}
{"smiles": "O=C(Nc1ccc(C2CCN(C(=O)c3ccccc3)CC2)cc1)C1CN(c2cncc(F)c2)C1", "note": "[Example 666, N-[4-(1-benzoylpiperidin-4-yl)phenyl]-1-(5-fluoropyridin-3-yl)azetidine-3-carboxamide]", "pIC50": 8.09}
{"smiles": "Cc1ccc(N2CC(C(=O)Nc3ccc(C4CCN(C(=O)c5ccccc5)CC4)cc3)C2)nn1", "note": "[Example 667, N-[4-(1-benzoylpiperidin-4-yl)phenyl]-1-(6-methylpyridazin-3-yl)azetidine-3-carboxamide]", "pIC50": 7.90}
{"smiles": "Cc1ccc(N2CC(C(=O)Nc3ccc(C4CCN(C(=O)c5ccccc5)CC4)cc3)C2)c(F)n1", "note": "[Example 668, N-[4-(1-benzoylpiperidin-4-yl)phenyl]-1-(2-fluoro-6-methylpyridin-3-yl)azetidine-3-carboxamide]", "pIC50": "< 5.00"}
{"smiles": "O=C(Nc1ccc(C2CCN(C(=O)c3ccccc3Cl)CC2)cc1)[C@H]1CCN(c2cccnn2)C1", "note": "[Example 669, (3S)-N-{4-[1-(2-chlorobenzoyl)piperidin-4-yl]phenyl}-1-(pyridazin-3-yl)pyrrolidine-3-carboxamide]", "pIC50": 8.73}
{"smiles": "CCCC(C)C(=O)N1CCC(c2ccc(NC(=O)[C@H]3CCN(c4cccnn4)C3)cc2)CC1", "note": "(stereo partly drawn) [Example 670, (3S)-N-{4-[1-(2-methylpentanoyl)piperidin-4-yl]phenyl}-1-(pyridazin-3-yl)pyrrolidine-3-carboxamide]", "pIC50": 8.07}
{"smiles": "CC(C)CCC(=O)N1CCC(c2ccc(NC(=O)[C@H]3CCN(c4cccnn4)C3)cc2)CC1", "note": "[Example 671, (3S)-N-{4-[1-(4-methylpentanoyl)piperidin-4-yl]phenyl}-1-(pyridazin-3-yl)pyrrolidine-3-carboxamide]", "pIC50": 8.07}
{"smiles": "Cc1ccc(C(=O)N2CCC(c3ccc(NC(=O)[C@H]4CCN(c5cccnn5)C4)cc3)CC2)c(C)c1", "note": "[Example 672, (3S)-N-{4-[1-(2,4-dimethylbenzoyl)piperidin-4-yl]phenyl}-1-(pyridazin-3-yl)pyrrolidine-3-carboxamide]", "pIC50": 8.39}
{"smiles": "CCCCCCC(=O)N1CCC(c2ccc(NC(=O)[C@H]3CCN(c4cccnn4)C3)cc2)CC1", "note": "[Example 673, (3S)-N-[4-(1-heptanoylpiperidin-4-yl)phenyl]-1-(pyridazin-3-yl)pyrrolidine-3-carboxamide]", "pIC50": 7.94}
{"smiles": "O=C(Nc1ccc(C2CCN(C(=O)c3ccc(Cl)cc3Cl)CC2)cc1)[C@H]1CCN(c2cccnn2)C1", "note": "[Example 674, (3S)-N-{4-[1-(2,4-dichlorobenzoyl)piperidin-4-yl]phenyl}-1-(pyridazin-3-yl)pyrrolidine-3-carboxamide]", "pIC50": 8.24}
{"smiles": "O=C(Nc1ccc(C2CCN(C(=O)Cc3ccc(F)cc3)CC2)cc1)[C@H]1CCN(c2cccnn2)C1", "note": "[Example 675, (3S)-N-(4-{1-[(4-fluorophenyl)acetyl]piperidin-4-yl}phenyl)-1-(pyridazin-3-yl)pyrrolidine-3-carboxamide]", "pIC50": 7.16}
